From a melting point compilation (Tetko et al.; mined from patent text by program, amines drawn as free bases though some values may be those of a salt)

SMILES	melting point [°C]
Cc1cc2c(cc1C)C(=O)C(CC(=O)O)CC2 (stereo unspecified)	193 to 194
Cc1cc(-c2ccc(C(F)(F)F)cc2)nc(-c2cccc(-c3ccc(S(N)(=O)=O)s3)c2)n1	225
Cc1cc(OS(=O)(=O)c2ccccc2)cc2c(C3CCN(C)CC3)c[nH]c12	118
CNCC(O)C1=CC2(CCCC2)c2ccccc21 (stereo unspecified)	75 to 77
CN(C)C=NC(=S)NC1CCN(C(=O)OC(C)(C)C)CC1	170
CC(=O)N1CCC(c2nn(-c3ccc(C(F)(F)F)cc3)c3ccccc23)CC1	148 to 150
Fc1cccc(F)c1-c1ncc(-c2ccc(-c3ccc(OC(F)(F)F)cc3)cc2)nn1	225 to 230
CC(C)(N)CNC(=O)CNC(=O)CNC(=O)Cc1ccccc1	209 to 210
CC(C)COC(=O)COC(=O)CON1CC(NC(=O)OCc2ccccc2)C1=O (stereo unspecified)	90 to 92
Cn1ncc2c(=O)n3c(nc21)SCC3	257 to 258
O=c1cccc2c([N+](=O)[O-])cccc2n1	139 to 141
O=C(NC1CCC(OCc2ccccc2)CC1)NC12CC3CC(CC(C3)C1)C2 (stereo unspecified)	181
CC(=NOCCO)c1ccc(-c2ccc(C(F)(F)F)cc2)cc1	108 to 111
CC(Br)(CBr)CS(=O)(=O)Oc1ccc([N+](=O)[O-])cc1 (stereo unspecified)	56 to 58
COc1ccc2c3c(c4cc(OC)c(OC)cc4c2c1)CC1CCCCN1C3 (stereo unspecified)	193 to 195
Cc1ccc(NC(=O)Nc2cc(C(C)(C)C)sc2CNC(=O)CN)cc1	93 to 96
CC(C)(C)Cn1c(=O)c(C#N)c(N2CCN(C(=O)c3cccs3)CC2)c2cccnc21	232
CC(C)(C)OC(=O)C=Cc1cc(Br)cc(Cc2cccnc2)c1	97 to 99
O=C1CCC(c2cccc(O)c2)N1Cc1ccncc1 (stereo unspecified)	148 to 150
COc1cc(C=C2SC(=O)NC2=O)cc(OC)c1O	248 to 249
NS(=O)(=O)c1cc2c3c(cc([N+](=O)[O-])c2cc1[N+](=O)[O-])N(C(=O)C(F)(F)F)CC3CCl (stereo unspecified)	201 to 204

SMILES	melting point [°C]
C=CCCCC(C#N)(C#N)Cc1ccc(C#N)cc1	91.5
CC(C)(C)c1cc(NC(=O)NCc2ccc(N)cc2)cc(C(C)(C)C)c1O	194 to 195
CC(C)(Cc1cc([N+](=O)[O-])c(F)cc1Cl)C(=O)O	102 to 104
CC1(C)Nc2cccc3cccc(c23)N1	114 to 115
CC(C)C[C@H](NC(C)C)C(=O)O	293 to 296
O=C(c1ccc(O)cc1)N1CCN(CC(O)Cn2c3ccccc3c3ccccc32)CC1 (stereo unspecified)	184
O=C(NCc1ccccc1)n1c(=O)sc2c(Cl)cccc21	106
OCCON=Cc1ccccn1	45
CCN(C(=O)C1CC1)c1cccc(-c2ccnc3ccnn23)c1	127 to 129
CCN1CCC2(CC1)CN=C(c1cc3cccc(N(C)S(=O)(=O)c4cccs4)c3[nH]1)S2	215
CC1c2ccccc2-c2[nH]c3ccccc3c21 (stereo unspecified)	153 to 155
COC(=O)C=Cc1ccc(OCC2CN(c3ccccc3)C(=O)O2)cc1 (stereo unspecified)	179 to 181
COCOc1ccc(N2C(=O)[C@@H](N=[N+]=[N-])[C@H]2C=Cc2ccccc2)cc1 (relative stereo)	111 to 112
CC(C)=CCn1c(=S)sc2c(=O)[nH]c(N)nc21	> 320
CC(C)(C)C(=O)C(Br)c1ccccc1 (stereo unspecified)	38 to 42
COc1cc2c3c(n(C(=O)c4ccccc4)c2cc1OC)CCC(C(=O)O)C3 (stereo unspecified)	191 to 194
CC(C)c1csc(/C=C/c2cccc(NC(=O)Cc3ccccc3CC(=O)O)c2)n1	144 to 146
CC(=O)OC1C(N2CCCCC2)CC2C3CCC4CCC(=O)CC4(C)C3CCC21C (stereo unspecified)	165 to 167
C=CC[C@@H](N[S@](=O)C(C)(C)C)c1cc(F)cc(C#N)c1	38 to 40
O=C(NC[C@@H]1CN2C(=O)C[C@H]2O1)c1cc(F)ccc1F (racemic)	88.8 to 90.7

Now from value to compound:

melting point [°C]	SMILES
193 to 194	Cn1c(C(F)(F)F)cc(=O)n(-c2ccc3snc(C=O)c3c2)c1=O
150 to 151	CCCCOCCOc1ccc(-c2ccc3c(c2)C=C(C(=O)Nc2ccc4c(c2)nc(S(=O)Cc2cncn2CCC)n4C)CCN3CC(C)C)cc1 (stereo unspecified)
145 to 150	Oc1ccc(-c2ccc(-c3ccc(O)cc3)c(-c3ccc(OCCN4CCCC4)cc3)n2)cc1
149	COc1ccc(C(=O)c2cc(-c3cccnc3)c(N3CCOCC3)s2)cc1
111 to 112	CCCOc1c(OC)cc(C=O)cc1S(=O)(=O)CCO
154	CCCCc1nc(S(=O)(=O)c2ccc(OC)cc2)c(C(=O)O)n1Cc1cc2c(cc1Cl)OCO2
103 to 104	CCCCc1c(C(C)C)nc(C(C)C)c(C(C)O)c1-c1ccc(F)cc1 (stereo unspecified)
195	CC(C)n1nc(-c2cnc(N)nc2-c2ccc(Cl)cc2)ccc1=O
182	COc1cc(CCc2ccccc2OCc2ccccc2)ncc1C(=O)O
138 to 139	CCCCn1c(Cc2cc(OC)ccc2Cl)nc2c(N)ncnc21
140 to 150	COc1ccc2[nH]cc(CC3=CCCN(CCCC(=O)c4cccs4)C3)c2c1
140 to 141	Cc1sc(-c2ccccc2)nc1COc1ccc(Cn2cc(CC(=O)O)c(-c3ccccc3)n2)cn1
160 to 161	COc1ccc(-c2ccc(C(=O)Nc3ccc4cc(CN5CCCCCC5)cnc4c3C)cc2F)cc1
202 to 205	Cn1nc(-c2nc(-n3cccc3)c(N)nc2-c2ccccc2)ccc1=O
123 to 124	CC(OC(=O)Nc1ccc(-c2ncn(-c3ccc(OC(F)(F)F)cc3)n2)cc1)C1CC1 (stereo unspecified)
280	Cc1cc(-c2cc(=O)c3cccnc3o2)cc(C)c1OCC(=O)O
154 to 156	O=C(O)COc1ccc(OC(F)(F)F)cc1C(=O)NCc1cccc([N+](=O)[O-])c1
205 to 207	CCCn1c(=O)c2[nH]c(-c3cc(C)n(CC(=O)Nc4ccc(F)cc4)n3)nc2n(CCC)c1=O
125 to 128	COc1ccc(Cc2cc(-c3ccc(Cl)cc3)sc2Cc2ccc(OC)cc2)cc1
304 to 305	Oc1cnc2cc(F)ccc2n1
136 to 137	CNc1ccc(OCCN2CCC(Cc3ccc(C)cc3)CC2)cc1
155	C#Cc1nc(-c2ccco2)c2ncn(Cc3ccc(OC)cc3)c2n1
250	COc1ccc2[nH]c(=O)c3cccn3c2n1
200 to 201	CC1(C)CCC(C)(C)c2cc3c(cc21)OCC=C3Cc1ccc(C(=O)O)cc1
221	O=c1c(Cl)c(Cl)cnn1-c1ccc([N+](=O)[O-])cc1
225 to 226	CC(C)Cn1cnc2c(C(N)=O)nc3ccccc3c21
211 to 212	CC(C)c1c(C(=O)O)cnn1-c1ccc(Cl)cc1
176 to 178	CCn1c(=O)c(CC(=O)OC)cc2ccc(O)cc21
156 to 160	CCc1c(CCN2CCC(c3nsc4cc(F)ccc34)CC2)sc2c1CCN(C(C)=O)C2
325	O=C(c1ccc2[nH]c(=O)n(Cc3ccc(F)cc3)c(=O)c2c1)c1nc(Br)c2ccccn12
